# Measured values reported in patent publication US20050245399A1, “Pyrazole derivatives as herbicidal compositions containing them” (ISHIHARA SANGYO KAISHA, LTD., priority 2004, published 2005).
# How the values were obtained:
# [1] = system: rice (Oryza sativa L.), ORYSA; assay: Test Example 2 post-emergence (foliage treatment) herbicidal activity, ORYSA; assay type: in vivo
# Summary of the method: (§1)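 A small sprayer delivered the diluted WP or EC formulation (500 L/ha water, 0.1% v/v spreader) over emerged seedlings in upland soil pots. Damage relative to untreated plants was graded visually from 0 to 100% three weeks or so later (days 20-23).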
# [2] = system: barnyardgrass (Echinochloa crus-galli L.), ECHCG; assay: Test Example 2 post-emergence (foliage treatment) herbicidal activity, ECHCG; assay type: in vivo
# Summary of the method: as §1
# [3] = system: corn (Zea mays L.), ZEAMX; assay: Test Example 2 post-emergence (foliage treatment) herbicidal activity, ZEAMX; assay type: in vivo
# Summary of the method: (§2)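 Each species was evaluated for growth suppression by eye, 0% matching untreated and 100% meaning death, some 20 to 23 days after a single post-emergence foliar treatment applied in 500 L/ha of water carrying 0.1% (v/v) agricultural spreader.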
# [4] = system: barnyardgrass (Echinochloa crus-galli L.): ECHCG; assay: Test Example 1 pre-emergence herbicidal activity, ECHCG; assay type: in vivo; details: Rate 63 g a.i./ha, visually observed 20th to 23rd day after application
# Summary of the method: (§3)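 Herbicidal effect in pre-emergence treatment: formulated compound sprayed at 500 L/ha water one day after sowing in upland field soil pots, with visual 0–100% growth-control scores recorded 20–23 days after application.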
# [5] = system: redroot pigweed (Amaranthus retroflexus L.), AMARE; assay: Test Example 2 post-emergence (foliage treatment) herbicidal activity, AMARE; assay type: in vivo
# Summary of the method: as §1
# [6] = system: soybean (Glycine max Merr.): GLXMA; assay: Test Example 1 pre-emergence herbicidal activity, GLXMA; assay type: in vivo; details: Rate 63 g a.i./ha, visually observed 20th to 23rd day after application
# Summary of the method: as §3
# [7] = system: wheat (Triticum aestivum L.): TRZAX; assay: Test Example 1 pre-emergence herbicidal activity, TRZAX; assay type: in vivo; details: Rate 63 g a.i./ha, visually observed 20th to 23rd day after application
# Summary of the method: as §3
# [8] = system: prickly sida (Sida spinosa L.): SEDSP; assay: Test Example 1 pre-emergence herbicidal activity, SIDSP; assay type: in vivo; details: Rate 63 g a.i./ha, visually observed 20th to 23rd day after application
# Summary of the method: as §3
# [9] = system: velvetleaf (Abutilon theophrasti), ABUTH; assay: Test Example 2 post-emergence (foliage treatment) herbicidal activity, ABUTH; assay type: in vivo
# Summary of the method: as §2
# [10] = system: redroot pigweed (Amaranthus retroflexus L.): AMARE; assay: Test Example 1 pre-emergence herbicidal activity, AMARE; assay type: in vivo; details: Rate 63 g a.i./ha, visually observed 20th to 23rd day after application
# Summary of the method: as §3
# [11] = system: rice (Oryza sativa L.): ORYSA; assay: Test Example 1 pre-emergence herbicidal activity, ORYSA; assay type: in vivo; details: Rate 63 g a.i./ha, visually observed 20th to 23rd day after application
# Summary of the method: as §3
# [12] = system: green foxtail (Setaria viridis L.), SETVI; assay: Test Example 2 post-emergence (foliage treatment) herbicidal activity, SETVI; assay type: in vivo
# Summary of the method: as §2
# [13] = system: wheat (Triticum aestivum L.), TRZAX; assay: Test Example 2 post-emergence (foliage treatment) herbicidal activity, TRZAX; assay type: in vivo
# Summary of the method: as §2
# [14] = system: green foxtail (Setaria viridis L.): SETVI; assay: Test Example 1 pre-emergence herbicidal activity, SETVI; assay type: in vivo; details: Rate 63 g a.i./ha, visually observed 20th to 23rd day after application
# Summary of the method: as §3
# [15] = system: prickly sida (Sida spinosa L.), SIDSP; assay: Test Example 2 post-emergence (foliage treatment) herbicidal activity, SIDSP; assay type: in vivo
# Summary of the method: as §2
# [16] = system: crabgrass (Digitaria sanguinalis L.), DIGSA; assay: Test Example 2 post-emergence (foliage treatment) herbicidal activity, DIGSA; assay type: in vivo
# Summary of the method: as §1
# [17] = system: velvetleaf (Abutilon theophrasti): ABUTH; assay: Test Example 1 pre-emergence herbicidal activity, ABUTH; assay type: in vivo; details: Rate 63 g a.i./ha, visually observed 20th to 23rd day after application
# Summary of the method: as §3
# [18] = system: soybean (Glycine max Merr.), GLXMA; assay: Test Example 2 post-emergence (foliage treatment) herbicidal activity, GLXMA; assay type: in vivo
# Summary of the method: as §2
# [19] = system: crabgrass (Digitaria sanguinalis L.): DIGSA; assay: Test Example 1 pre-emergence herbicidal activity, DIGSA; assay type: in vivo; details: Rate 63 g a.i./ha, visually observed 20th to 23rd day after application
# Summary of the method: as §3
# [20] = system: corn (Zea mays L.): ZEAMX; assay: Test Example 1 pre-emergence herbicidal activity, ZEAMX; assay type: in vivo; details: Rate 63 g a.i./ha, visually observed 20th to 23rd day after application
# Summary of the method: as §3
# [21] = system: rice (Oryza sativa L.: ORYSA); assay: Test Example 3 water application herbicidal activity (paddy), transplanted rice ORYSA; assay type: in vivo; details: 63 g a.i./ha, water application 4th day after transplantation of 2 leaf stage rice, visually observed 21st day after application; 0 = untreated control, 100 = complete kill
# Summary of the method: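 Flooded paddy-soil pots in greenhouse; ECHOR and SCPJO sown, SAGPY tubers planted a day later, compound applied into 3–4 cm water at weeds' 0.5-leaf stage. Rice transplanted at 2-leaf stage, treated day 4 after transplanting. Visual growth control 0–100% at 14 days (weeds) and 21 days (rice) after application.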
# [22] = system: barnyardgrass (Echinochiloa oryzicola: ECHOR); assay: Test Example 3 water application herbicidal activity (paddy), ECHOR; assay type: in vivo; details: 63 g a.i./ha, water application under submerged condition at 0.5 leaf stage, visually observed 14th day after application; 0 = untreated control, 100 = complete kill
# Summary of the method: (§4)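 Compound, as diluted wettable powder or emulsifiable concentrate, was pipetted into flood water at a set active-ingredient dose. Weeds were treated at 0.5-leaf stage after sowing or tuber planting; 2-leaf rice 4 days post-transplant. Control scored visually, 0 untreated to 100 complete kill, weeds day 14, rice day 21.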
# [23] = system: japanese ribbon wapato (Sagittaria pygmaea: SA GPY); assay: Test Example 3 water application herbicidal activity (paddy), SAGPY; assay type: in vivo; details: 63 g a.i./ha, water application under submerged condition, tubers planted, visually observed 14th day after application; 0 = untreated control, 100 = complete kill
# Summary of the method: as §4
# [24] = system: japanese bulrush (Scirpus juncoides: SCPJO); assay: Test Example 3 water application herbicidal activity (paddy), SCPJO; assay type: in vivo; details: 63 g a.i./ha, water application under submerged condition at 0.5 leaf stage, visually observed 14th day after application; 0 = untreated control, 100 = complete kill
# Summary of the method: as §4
SMILES,"growth controlling degree, ORYSA ([1]; 63 g a.i./ha)","growth controlling degree, ECHCO ([2]; 63 g a.i./ha)","growth controlling degree, ZEAMX ([3]; 63 g a.i./ha)",Pre-emergence Herbicidal Activity ECHCG (growth controlling degree) [4],"growth controlling degree, AMARE ([5]; 63 g a.i./ha)",Pre-emergence Herbicidal Activity GLXMA (growth controlling degree) [6],Pre-emergence Herbicidal Activity TRZAX (growth controlling degree) [7],Pre-emergence Herbicidal Activity SIDSP (growth controlling degree) [8],"growth controlling degree, ABUTH ([9]; 63 g a.i./ha)",Pre-emergence Herbicidal Activity AMARE (growth controlling degree) [10],Pre-emergence Herbicidal Activity ORYSA (growth controlling degree) [11],"growth controlling degree, SETVI ([12]; 63 g a.i./ha)","growth controlling degree, TRZAX ([13]; 63 g a.i./ha)",Pre-emergence Herbicidal Activity SETVI (growth controlling degree) [14],"growth controlling degree, SIDSP ([15]; 63 g a.i./ha)","growth controlling degree, DIGSP ([16]; 63 g a.i./ha)",Pre-emergence Herbicidal Activity ABUTH (growth controlling degree) [17],"growth controlling degree, GLXMA ([18]; 63 g a.i./ha)",Pre-emergence Herbicidal Activity DIGSP (growth controlling degree) [19],Pre-emergence Herbicidal Activity ZEAMX (growth controlling degree) [20],further results
"COc1c(Cl)cc(F)c(-c2nn(C)c(OC(F)F)c2Cl)c1NC(=O)OCc1ccccn1 [Compound 1-69, [3-chloro-6-[4-chloro-5-(difluoromethoxy)-1-methyl-1H-pyrazol-3-yl]-5-fluoro-2-methoxyphenyl]-carbamic acid, 2-pyridinylmethyl ester]",95%,100%,95%,80%,100%,10%,0%,100%,100%,100%,10%,100%,50%,100%,100%,70%,100%,95%,100%,10%,melting point: 35 to 37 °C
C#CCNc1c(OC(F)F)c(Cl)cc(F)c1-c1nn(C)c(OC(F)F)c1Cl [Compound 1-87],70%,100%,100%,100%,100%,40%,10%,98%,100%,100%,60%,100%,50%,100%,100%,100%,80%,95%,100%,0%,growth controlling degrees (%) ORYSA [21]: 70%; growth controlling degrees (%) ECHOR [22]: 100%; growth controlling degrees (%) SAGPY [23]: 100%; growth controlling degrees (%) SCPJO [24]: 100%
Cn1nc(-c2c(F)cc(Cl)c(OC(F)F)c2NCc2ccccc2)c(Cl)c1OC(F)F [Compound 1-88],30%,100%,60%,50%,100%,40%,0%,80%,100%,100%,10%,100%,30%,70%,100%,98%,70%,60%,98%,0%,growth controlling degrees (%) ORYSA [21]: 20%; growth controlling degrees (%) ECHOR [22]: 100%; growth controlling degrees (%) SAGPY [23]: 60%; growth controlling degrees (%) SCPJO [24]: 80%
"COc1c(Cl)cc(F)c(-c2nn(C)c(OC(F)F)c2Cl)c1N [Compound 1-90, 3-chloro-6-[4-chloro-5-(difluoromethoxy)-1-methyl-1H-pyrazol-3-yl]-5-fluoro-2-methoxybenzenamine]",,,,98%,,40%,50%,98%,,100%,60%,,,100%,,,100%,,100%,30%,"growth controlling degree, ORYSA ([1]; 31 g a.i./ha): 98%; growth controlling degree, ECHCO ([2]; 31 g a.i./ha): 100%; growth controlling degree, ZEAMX ([3]; 31 g a.i./ha): 98%; growth controlling degree, AMARE ([5]; 31 g a.i./ha): 100%; growth controlling degrees (%) ORYSA [21]: 50%; growth controlling degrees (%) ECHOR [22]: 100%; growth controlling degree, ABUTH ([9]; 31 g a.i./ha): 100%; growth controlling degrees (%) SAGPY [23]: 98%; growth controlling degree, SETVI ([12]; 31 g a.i./ha): 100%; growth controlling degree, TRZAX ([13]; 31 g a.i./ha): 95%; growth controlling degree, SIDSP ([15]; 31 g a.i./ha): 100%; growth controlling degree, DIGSP ([16]; 31 g a.i./ha): 100%; growth controlling degrees (%) SCPJO [24]: 98%; growth controlling degree, GLXMA ([18]; 31 g a.i./ha): 98%"
COc1c(Cl)cc(F)c(-c2nn(C)c(OC(F)F)c2Cl)c1NC(=O)C=Cc1c(Cl)cccc1Cl [Compound 1-252],50%,100%,50%,30%,100%,0%,10%,20%,100%,100%,10%,100%,50%,50%,100%,95%,50%,80%,40%,0%,growth controlling degrees (%) ORYSA [21]: 10%; growth controlling degrees (%) ECHOR [22]: 100%; growth controlling degrees (%) SAGPY [23]: 60%; growth controlling degrees (%) SCPJO [24]: 30%
